Assay results published in US11021457B2, “Class of isoindolone-imide ring-1,3-dione-2-ene compounds, composition and use thereof” (WIGEN BIOMEDICINE TECHNOLOGY (SHANGHAI) CO., LTD., priority 2017, dated 2021).

Tests used:
Format in all cases: cell-based
RPMI-8226 = test: Inhibition of tumor cell proliferation, CellTiter-Glo, RPMI-8226; conditions: compound concentration 50 μM, 72 hours; for cell survival rate (% of control) at 50 µM: Homo sapiens, RPMI-8226, read-out: Inhibitory activity against proliferation (cell survival rate) RPMI-8226
Procedure: (§1) For various cell lines, the corresponding complete medium was used, and culture was carried out in an incubator at 37° C. with 5% CO2. The cells were counted, and inoculated into a 96-well plate at 2000-10000 cells/100 μl per well according to the cell volume and growth rate. The suspended cells were treated immediately, and the adherent cells were treated after adherence. The CellTiter-Glo method was used to detect the changes in cell viability 72 hours after the administration, and the cell survival rate at different concentrations was calculated by a formula: Survival rate (%)=(RLU of treatment well−RLU of blank well)/(RLU of control well−RLU of blank well)×100.
(§2) Method for expressing the inhibitory activity of the compounds against the proliferation of tumor cells: Evaluation was made based on the cell survival rate at a compound concentration of 50 μM. 60≤survival rate (%)<90 is considered to have low inhibitory activity against the proliferation of tumor cells (+); 30<survival rate (%)≤60 is considered to have moderate inhibitory activity against the proliferation of tumor cells (++); and survival rate (%)≤30 is considered to have high inhibitory activity against the proliferation of tumor cells (+++).

MDA-MB-453 = test: Inhibition of tumor cell proliferation, CellTiter-Glo, MDA-MB-453; conditions: compound concentration 50 μM, 72 hours; for cell survival rate (%) at 50 µM: Homo sapiens, MDA-MB-453, read-out: Inhibitory activity against proliferation (cell survival rate) MDA-MB-453
Procedure: as §1, §2

K562 = test: Inhibition of tumor cell proliferation, CellTiter-Glo, K562; conditions: compound concentration 50 μM, 72 hours; for cell survival rate (%) at 50 µM: Homo sapiens, K562, read-out: Inhibitory activity against proliferation (cell survival rate) K562
Procedure: as §1, §2

A549 = test: Inhibition of tumor cell proliferation, CellTiter-Glo, A549; conditions: compound concentration 50 μM, 72 hours; for cell survival rate (% of control) at 50 µM: Homo sapiens, A549, read-out: Inhibitory activity against proliferation (cell survival rate) A549
Procedure: as §1, §2

BxPC-3 = test: Inhibition of tumor cell proliferation, CellTiter-Glo, BxPC-3; conditions: compound concentration 50 μM, 72 hours; for cell survival rate (%) at 50 µM: Homo sapiens, BXPC-3, read-out: Inhibitory activity against proliferation (cell survival rate) BxPC-3
Procedure: as §1, §2

SU-DHL6 = test: Inhibition of tumor cell proliferation, CellTiter-Glo, SU-DHL6; conditions: compound concentration 50 μM, 72 hours; for cell survival rate (% of control) at 50 µM: Homo sapiens, SU-DHL-6, read-out: Inhibitory activity against proliferation (cell survival rate) SU-DHL6
Procedure: as §1, §2

| Structure (SMILES) | Inhibitory activity against proliferation (cell survival rate) RPMI-8226 (RPMI-8226) | Inhibitory activity against proliferation (cell survival rate) MDA-MB-453 (MDA-MB-453) | Inhibitory activity against proliferation (cell survival rate) K562 (K562) | Inhibitory activity against proliferation (cell survival rate) A549 (A549) | Inhibitory activity against proliferation (cell survival rate) BxPC-3 (BxPC-3) | Inhibitory activity against proliferation (cell survival rate) SU-DHL6 (SU-DHL6) | cell survival rate (% of control) at 50 µM (RPMI-8226) [%] | cell survival rate (%) at 50 µM (MDA-MB-453) [%] | cell survival rate (%) at 50 µM (K562) [%] | cell survival rate (% of control) at 50 µM (A549) [%] | cell survival rate (%) at 50 µM (BxPC-3) [%] | cell survival rate (% of control) at 50 µM (SU-DHL6) [%] |
| --- | --- | --- | --- | --- | --- | --- | --- | --- | --- | --- | --- | --- |
| O=C1CCC(N2Cc3c(NC(=O)[C@@H]4C[C@H](O)CN4CCNC=C4C(=O)CC(c5ccccc5)CC4=O)cccc3C2=O)C(=O)N1 (some centres unmarked) [Compound 65] | +++ (survival rate (%)≤30) | +++ (survival rate (%)≤30) | +++ (survival rate (%)≤30) | +++ (survival rate (%)≤30) | + (60≤survival rate (%)<90) | +++ (survival rate (%)≤30) | – | – | – | – | – | – |
| O=C1CCC(N2Cc3c(NC=C4C(=O)CC(/C=C/c5ccccc5)CC4=O)cccc3C2=O)C(=O)N1 (centres unmarked) [Compound 120] | ++ (30<survival rate (%)≤60) | ++ (30<survival rate (%)≤60) | ++ (30<survival rate (%)≤60) | + (60≤survival rate (%)<90) | + (60≤survival rate (%)<90) | ++ (30<survival rate (%)≤60) | – | – | – | – | – | – |
| O=C1CCC(N2Cc3c(NC(=O)OCc4cnc(NC=C5C(=O)CC(c6ccccc6)CC5=O)s4)cccc3C2=O)C(=O)N1 (centres unmarked) [Compound 84] | +++ (survival rate (%)≤30) | +++ (survival rate (%)≤30) | +++ (survival rate (%)≤30) | + (60≤survival rate (%)<90) | + (60≤survival rate (%)<90) | +++ (survival rate (%)≤30) | – | – | – | – | – | – |
| COc1ccc(C2CC(=O)C(=CNc3cccc4c3CN(C3CCC(=O)NC3=O)C4=O)C(=O)C2)c(OC)c1 (centres unmarked) [Compound 40] | + (60≤survival rate (%)<90) | + (60≤survival rate (%)<90) | +++ (survival rate (%)≤30) | +++ (survival rate (%)≤30) | ++ (30<survival rate (%)≤60) | + (60≤survival rate (%)<90) | – | – | – | – | – | – |
| O=C1CCC(N2Cc3c(NC(=O)c4ccccc4NC=C4C(=O)CC(c5ccccc5)CC4=O)cccc3C2=O)C(=O)N1 (centres unmarked) [Compound 52] | +++ (survival rate (%)≤30) | ++ (30<survival rate (%)≤60) | +++ (survival rate (%)≤30) | ++ (30<survival rate (%)≤60) | + (60≤survival rate (%)<90) | + (60≤survival rate (%)<90) | – | – | – | – | – | – |
| O=C1CCC(N2Cc3c(NC=C4C(=O)CC(c5ccc(O)cc5)CC4=O)cccc3C2=O)C(=O)N1 (centres unmarked) [Compound 34] | ++ (30<survival rate (%)≤60) | +++ (survival rate (%)≤30) | ++ (30<survival rate (%)≤60) | + (60≤survival rate (%)<90) | + (60≤survival rate (%)<90) | +++ (survival rate (%)≤30) | – | – | – | – | – | – |
| O=C1CCC(N2Cc3c(NC(=O)OCCOCCN4CCN(CCNC=C5C(=O)CC(c6ccccc6)CC5=O)CC4)cccc3C2=O)C(=O)N1 (centres unmarked) [Compound 87] | +++ (survival rate (%)≤30) | +++ (survival rate (%)≤30) | ++ (30<survival rate (%)≤60) | ++ (30<survival rate (%)≤60) | + (60≤survival rate (%)<90) | +++ (survival rate (%)≤30) | – | – | – | – | – | – |
| O=C1CCC(N2C(=O)c3cccc(OC(=O)OCCOCCN4CCN(CCNC=C5C(=O)CC(c6ccccc6)CC5=O)CC4)c3C2=O)C(=O)N1 (centres unmarked) [Compound 104] | +++ (survival rate (%)≤30) | +++ (survival rate (%)≤30) | +++ (survival rate (%)≤30) | +++ (survival rate (%)≤30) | ++ (30<survival rate (%)≤60) | +++ (survival rate (%)≤30) | – | – | – | – | – | – |
| O=C1CCC(N2Cc3c(NC=C4C(=O)CC(c5ccc(OC(F)(F)F)cc5)CC4=O)cccc3C2=O)C(=O)N1 (centres unmarked) [Compound 22] | + (60≤survival rate (%)<90) | ++ (30<survival rate (%)≤60) | + (60≤survival rate (%)<90) | + (60≤survival rate (%)<90) | ++ (30<survival rate (%)≤60) | + (60≤survival rate (%)<90) | – | – | – | – | – | – |
| O=C1CCC(N2Cc3c(NCCN4CCN(CCNC=C5C(=O)CC(c6ccccc6)CC5=O)CC4)cccc3C2=O)C(=O)N1 (centres unmarked) [Compound 107] | +++ (survival rate (%)≤30) | ++ (30<survival rate (%)≤60) | +++ (survival rate (%)≤30) | +++ (survival rate (%)≤30) | + (60≤survival rate (%)<90) | + (60≤survival rate (%)<90) | – | – | – | – | – | – |
| O=C1CCC(N2Cc3c(N/C=C4\C(=O)CC(Cc5ccccc5)C4=O)cccc3C2=O)C(=O)N1 (centres unmarked) [Compound 121] | – | – | – | – | – | – | ≤ 30 | 30 to 60 | 30 to 60 | 60 to 90 | 60 to 90 | ≤ 30 |
| O=C1CCC(N2Cc3c(NC=C4C(=O)CC(c5ccccc5)C(F)C4=O)cccc3C2=O)C(=O)N1 (centres unmarked) [Compound 28] | – | – | – | – | – | – | ≤ 30 | ≤ 30 | ≤ 30 | ≤ 30 | 30 to 60 | ≤ 30 |
| O=C1CCC(N2C(=O)c3cccc(OCC(=O)N4CCN(CCNC=C5C(=O)CC(c6ccccc6)CC5=O)CC4)c3C2=O)C(=O)N1 (centres unmarked) [Compound 105] | + (60≤survival rate (%)<90) | ++ (30<survival rate (%)≤60) | + (60≤survival rate (%)<90) | +++ (survival rate (%)≤30) | ++ (30<survival rate (%)≤60) | + (60≤survival rate (%)<90) | – | – | – | – | – | – |
| O=C1CCC(N2Cc3c(NC(=O)OCCNC=C4C(=O)CC(c5ccccc5)CC4=O)cccc3C2=O)C(=O)N1 (centres unmarked) [Compound 78] | + (60≤survival rate (%)<90) | +++ (survival rate (%)≤30) | +++ (survival rate (%)≤30) | +++ (survival rate (%)≤30) | + (60≤survival rate (%)<90) | + (60≤survival rate (%)<90) | – | – | – | – | – | – |
| O=C1CCC(N2C(=O)c3cccc(OCCOCCOCCOCCN4CCN(CCNC=C5C(=O)CC(c6ccccc6)CC5=O)CC4)c3C2=O)C(=O)N1 (centres unmarked) [Compound 125] | +++ (survival rate (%)≤30) | +++ (survival rate (%)≤30) | + (60≤survival rate (%)<90) | + (60≤survival rate (%)<90) | ++ (30<survival rate (%)≤60) | +++ (survival rate (%)≤30) | – | – | – | – | – | – |
| O=C1CCC(N2Cc3c(NC=C4C(=O)CC(C5CCCCC5)CC4=O)cccc3C2=O)C(=O)N1 (centres unmarked) [Compound 131] | +++ (survival rate (%)≤30) | +++ (survival rate (%)≤30) | ++ (30<survival rate (%)≤60) | – | + (60≤survival rate (%)<90) | + (60≤survival rate (%)<90) | – | – | – | – | – | – |
